Measured values taken from patent US12545637B2, “Extrahepatic targeted cationic lipid compound with high efficiency and low toxicity and its composition” (BEIJING YOUCARE KECHUANG PHARMACEUTICAL TECHNOLOGY CO., LTD., priority 2023, dated 2026).

Columns and labels:
[1] = Particle size and polydispersity index (PDI) of lipid nanoparticles by dynamic light scattering; format: physicochemical; details: for PDI: LNP formulation of the cationic lipid, 25° C.; for Particle size: LNP formulation of the cationic lipid/DSPC/cholesterol/DMG-PEG2000 49:10:39.5:1.5, 25° C.
Method: The particle size and polydispersity index (PDI) were determined by dynamic light scattering using Malvern laser particle size analyzer.
10 μL of the liposome solution was weighed, diluted to 1 mL with RNase-free deionized water, and added to the sample pool. Each sample was measured in triplicate. The measurement conditions were: […] scattering angle, and 25° C.

[2] = Detection of encapsulation efficiency, drug loading concentration and total RNA concentration (RiboGreen); format: physicochemical; details: for Drug loading concentration / Encapsulation efficiency / Total RNA concentration: LNP formulation prepared from the cationic lipid; for encapsulation efficiency higher than ALC-0315: difference vs ALC-0315; for encapsulation efficiency higher than HIMA: difference vs HIMA (HHMA); for encapsulation efficiency higher than SM-102: difference vs SM-102; for encapsulation efficiency higher than YK-009: difference vs YK-009; for encapsulation efficiency higher than compound 21: difference vs compound 21; for encapsulation efficiency higher than compound 23: difference vs compound 23; for drug loading concentration, times that of ALC-0315 / total RNA concentration, times that of ALC-0315: ratio vs ALC-0315; for drug loading concentration, times that of HIMA / total RNA concentration, times that of HIMA: ratio vs HIMA (HHMA); for drug loading concentration, times that of SM-102 / total RNA concentration, times that of SM-102: ratio vs SM-102; for drug loading concentration, times that of YK-009 / total RNA concentration, times that of YK-009: ratio vs YK-009; for drug loading concentration, times that of compound 21 / total RNA concentration, times that of compound 21: ratio vs compound 21; for drug loading concentration, times that of compound 23 / total RNA concentration, times that of compound 23: ratio vs compound 23
Procedure, shortened: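 Samples were diluted in 1×TE to about […], combined with TE and 0.1% Triton X-100 buffers, and held at 37 °C for 10 minutes before dye addition.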

293T cells = test: Cell transfection test of LNP formulation of eGFP-mRNA (optimization of preparation conditions); format: cell-based; details: for transfection efficiency at different molar ratios of polymer-conjugated lipid DMG-PEG2000 to carrier: 0.5% to 15%; for transfection effect at different molar ratios of cationic lipid, neutral lipid, structured lipid and polymer-conjugated lipid: 75:5:15:5 to 25:5:65:5
Method: The cationic lipid compound YK-407 synthesized in Example 1 was dissolved in ethanol with DSPC (AVT (Shanghai) Pharmaceutical Technology Co., Ltd.), cholesterol (AVT (Shanghai) Pharmaceutical Technology Co., Ltd.) and DMG-PEG2000 according to a molar ratio of 49:10:39.5:1.5, respectively, to prepare an ethanol lipid solution. The ethanol lipid solution was quickly added to citrate buffer (pH=4-5) by ethanol injection method, and vortexed for 30s for later use. eGFP-mRNA was diluted in citrate buffer (pH=4-5) to give an aqueous mRNA solution. A certain volume of liposome solution and mRNA aqueous solution were used to prepare liposomes at weight ratios of total lipids to mRNA of 5:1, 10:1, 15:1, 20:1, 30:1 and 35:1, respectively. The mixtures were sonicated at 25° C. for 15 min (with an ultrasonic frequency of 40 kHz and an ultrasonic power of 800 W). The resulted liposomes were diluted to 10 times volume with PBS, and then ultrafiltered with a 300KDa ultrafiltration tube to remove ethanol. Then the volume was fixed to a certain volume with PBS to give an LNP formulation encapsulating eGFP-mRNA using cationic lipid YK-407/DSPC/cholesterol/DMG-PEG2000 (49:10:39.5:1.5 in molar percentage).
The LNP formulation encapsulating eGFP-mRNA was prepared according to the method in 1, wherein the molar ratios of cationic lipid YK-407 to neutral lipid DSPC were 1:1, 3:1, 3.5:1, 4:1, 4.5:1, 4.9:1, 10:1, 15:1 and 20:1.
The LNP formulation encapsulating eGFP-mRNA was prepared according to the method in 1, wherein the cationic lipid in the carrier was YK-407, and the molar ratios of the polymer-conjugated lipid DMG-PEG2000 to the carrier were 0.5%, 1.5%, 3.5%, 5%, 10% and 15%, respectively.
The LNP formulation encapsulating eGFP-mRNA was prepared according to the method in 1, wherein the molar ratios of cationic lipid YK-407, neutral lipid DSPC, structured lipid cholesterol and polymer-conjugated lipid DMG-PEG2000 were 75:5:15:5, 49:10:39.5:1.5, 45:10:43.5:1.5, 45:25:20:10, 40:10:48.5:1.5, 35:10:53.5:1.5 and 25:5:65:5, respectively.
Cell recovery and passage: 293T cells were recovered, cultured in a culture dish, and passaged to the required number of cells.
Seeding plate: The cells in the culture dish were digested and counted. Cells were spread in a 96-well plate at 10,000 cells per well and in a 12-well plate at 150,000 cells per well. Cells were cultured overnight until the cells adhered to the wall.
Cell transfection test: The LNP formulation containing 1.5 μg of eGFP-mRNA prepared in Example 2 (the cationic lipid in the carrier was YK-407) and the Lipofectamin 3000 formulation of eGFP-mRNA were added respectively to the cell culture medium of the 12-well plate, and further incubated for 24 hours. The transfection efficiency of different samples was then investigated according to the fluorescence intensity by observing with a fluorescence microscope.

SMILES | PDI [1] | Particle size [1] | Drug loading concentration [2] | Encapsulation efficiency [2] | Total RNA concentration [2] | encapsulation efficiency higher than ALC-0315 [2] | encapsulation efficiency higher than HIMA [2] | encapsulation efficiency higher than SM-102 [2] | encapsulation efficiency higher than YK-009 [2] | encapsulation efficiency higher than compound 21 [2] | encapsulation efficiency higher than compound 23 [2] | drug loading concentration, times that of ALC-0315 [2] | total RNA concentration, times that of ALC-0315 [2] | drug loading concentration, times that of HIMA [2] | total RNA concentration, times that of HIMA [2] | drug loading concentration, times that of SM-102 [2] | total RNA concentration, times that of SM-102 [2] | drug loading concentration, times that of YK-009 [2] | total RNA concentration, times that of YK-009 [2] | drug loading concentration, times that of compound 21 [2] | other results
CCCCCCCCC(CCCCCCCC)OC(=O)CCCCCCCN(CCO)CCN(CCO)CCCCCCCC(=O)OC(CCCCCCCC)CCCCCCCC [YK-403, di(heptadecan-9-yl) 8, 8′-(ethane-1,2-diyl-bis((2-hydroxyethyl)azanediyl))dioctanoate] | 16.5% | 163 nm | 34.21 µg/mL | 87.9% | 40.53 µg/mL | 24.6% | 27.7% | 25.0% | 24.4% | 29.9% | 31.7% | 1.27 | 1.07 | 1.05 | 1.11 | 1.29 | 1.12 | 1.24 | 1.05 | 1.56 | total RNA concentration, times that of compound 21 [2]: 1.40; drug loading concentration, times that of compound 23 [2]: 1.71; total RNA concentration, times that of compound 23 [2]: 1.31; transfection efficiency at different molar ratios of polymer-conjugated lipid DMG-PEG2000 to carrier (293T cells): same results; transfection effect at different molar ratios of cationic lipid, neutral lipid, structured lipid and polymer-conjugated lipid (293T cells): same results
CCCCCCCCC(CCCCCCCC)COC(=O)CCCCCN(CCCO)CCCN(CCCO)CCCCCC(=O)OCC(CCCCCCCC)CCCCCCCC [YK-423, di(2-octyldecyl) 6,6′-(propan-1,3-diyl-bis((3-hydroxypropyl)azanediyl))dihexanoate] | 11.7% | 175 nm | 37.47 µg/mL | 89.7% | 41.00 µg/mL | 26.4% | 29.5% | 26.8% | 26.3% | 31.7% | 33.5% | 1.39 | 1.08 | 1.15 | 1.13 | 1.41 | 1.14 | 1.36 | 1.06 | 1.71 | total RNA concentration, times that of compound 21 [2]: 1.42; drug loading concentration, times that of compound 23 [2]: 1.87; total RNA concentration, times that of compound 23 [2]: 1.32; transfection efficiency at different molar ratios of polymer-conjugated lipid DMG-PEG2000 to carrier (293T cells): same results; transfection effect at different molar ratios of cationic lipid, neutral lipid, structured lipid and polymer-conjugated lipid (293T cells): same results
